The values below come from patent US20140073628A1, “BENZOXAZEPINES ASN INHIBITORS OF P13K/M TOR AND METHODS OF THEIR USE AND MANUFACTURE” (priority 2010, published 2014).

This experiment concerns the target mTOR/GbL/Raptor (mTORC1) (Homo sapiens, UniProt P42345). The experiment in a line: mTOR/GbL/Raptor (mTORC1) ELISA assay. In kind it is biochemical. The settings on record: phosphorylation of 4E-BP1; 0.2 nM mTORC1, 10 μM ATP, 50 nM NHis-tagged 4E-BP1. Here is the method:
mTOR/GbL/Raptor (mTORC1) ELISA Assay
The measurement of mTORC1 enzyme activity was performed in an ELISA assay format following the phosphorylation of 4E-BP1 protein. All experiments were performed in the 384-well format. Generally, 0.5 μL DMSO containing varying concentrations of the test compound was mixed with 15 μL enzyme solution. Kinase reactions were initiated with the addition of 15 μL of substrates-containing solution. The assay conditions were as follows; 0.2 nM mTORC1, 10 μM ATP and 50 nM NHis-tagged 4E-BP1 in 20 mM Hepes, pH 7.2, 1 mM DTT, 50 mM NaCl, 10 mM MnCl2, 0.02 mg/mL BSA, 0.01% CHAPS, 50 mM β-glycerophosphate. Following an incubation of 120 minutes at ambient temperature, 20 μL of the reaction volume was transferred to a Ni-Chelate-coated 384-well plate. The binding step of the 4E-BP1 protein proceeded for 60 minutes, followed by washing 4 times each with 50 μL of Tris-buffered saline solution (TBS). Anti-phospho-4E-BP1 rabbit-IgG (20 μL, 1:5000) in 5% BSA-TBST (0.2% Tween-20 in TBS) was added and further incubated for 60 minutes. Incubation with a secondary HRP-tagged anti-IgG was similarly performed after washing off the primary antibody (4 washes of 50 μL). Following the final wash step with TBST, 20 μL of SuperSignal ELISA Femto (Pierce Biotechnology) was added and the luminescence measured using an EnVision plate reader.
Background: An ELISA detects its analyte on a solid surface through an enzyme-linked reagent.
Usually IC50 stands for the point on the concentration scale where inhibition reaches its midpoint. Low values mean inhibition by little substance, high ones a need for much substance. The compound `COCCc1c(C)nc(CN(C)C)nc1N1CCOc2ccc(-c3ccc4nc(C)[nH]c4c3)cc2C1` [Compound 1, N,N-dimethyl-1-{4-methyl-6-[7-(2-methyl-1H-benzimidazol-6-yl)-2,3-dihydro-1,4-benzoxazepin-4(5H)-yl]-5-[2-(methyloxy)ethyl]pyrimidin-2-yl}methanamine] showed an IC50 of 500 to 2500 nM. The figure for `Cc1nc2ccc(-c3ccc4c(c3)CN(c3nc(CN(C)C)nc(C)c3C)CCO4)cc2[nH]1` [Compound 2, I-{4,5-dimethyl-6-[7-(2-methyl-1H-benzimidazol-6-yl)-2,3-dihydro-1,4-benzoxazepin-4(5H)-yl]pyrimidin-2-yl}-N,N-dimethylmethanamine] is 500 to 2500 nM; for `CCN(CC)Cc1nc(C)c(C(C)C)c(N2CCOc3ccc(-c4ccc5nc(C)[nH]c5c4)cc3C2)n1` [Compound 3, N-ethyl-N-({4-methyl-6-[7-(2-methyl-1H-benzimidazol-5-yl)-2,3-dihydro-1,4-benzoxazepin-4(5H)-yl]-5-(1-methylethyl)pyrimidin-2-yl}methyl)ethanamine] it is 100 to 500 nM; for `CC(=O)OCc1nc(C)c(C(C)C)c(N2CCOc3ccc(-c4ccc5nc(C)[nH]c5c4)cc3C2)n1` [Compound 4, {4-methyl-6-[7-(2-methyl-1H-benzimidazol-5-yl)-2,3-dihydro-1,4-benzoxazepin-4(5H)-yl]-5-(1-methylethyl)pyrimidin-2-yl}methyl acetate] it is no more than 100 nM. With `Cc1nc2ccc(-c3ccc4c(c3)CN(c3nc(CO)nc(C)c3C(C)C)CCO4)cc2[nH]1` [Compound 5, {4-methyl-6-[7-(2-methyl-1H-benzimidazol-5-yl)-2,3-dihydro-1,4-benzoxazepin-4(5H)-yl]-5-(1-methylethyl)pyrimidin-2-yl}methanol] the figure was no more than 100 nM; with `COC(=O)Cc1c(C)nc(CN(C)C)nc1N1CCOc2ccc(-c3ccc4nc(C)[nH]c4c3)cc2C1` [Compound 6, methyl {2-[(dimethylamino)methyl]-4-methyl-6-[7-(2-methyl-1H-benzimidazol-5-yl)-2,3-dihydro-1,4-benzoxazepin-4(5H)-yl]pyrimidin-5-yl}acetate], 500 to 2500 nM. The figure for `COCCOc1cc(-c2ccc3c(c2)CN(c2nc(CN(C)C)nc4c2CC(C)(C)CC4)CCO3)ccc1OC` [Compound 7, 1-(6,6-dimethyl-4-{7-[4-(methyloxy)-3-{[2-(methyloxy)ethyl]oxy}phenyl]-2,3-dihydro-1,4-benzoxazepin-4(5H)-yl}-5,6,7,8-tetrahydroquinazolin-2-yl)-N,N-dimethylmethanamine] is 100 to 500 nM; for `COc1ccc(-c2ccc3c(c2)CN(c2nc(CN(C)C)nc4c2CC(C)(C)CC4)CCO3)cc1OC(F)F` [Compound 8, 1-{4-[7-{3-[(difluoromethyl)oxy]-4-(methyloxy)phenyl}-2,3-dihydro-1,4-benzoxazepin-4(5H)-yl]-6,6-dimethyl-5,6,7,8-tetrahydroquinazolin-2-yl}-N,N-dimethylmethanamine] it is 100 to 500 nM. Regarding `COc1ccc(-c2ccc3c(c2)CN(c2nc(CN(C)C)nc4c2CC(C)(C)CC4)CCO3)cc1S(C)(=O)=O` [Compound 9, 1-(6,6-dimethyl-4-{7-[4-(methyloxy)-3-(methylsulfonyl)phenyl]-2,3-dihydro-1,4-benzoxazepin-4(5H)-yl}-5,6,7,8-tetrahydroquinazolin-2-yl)-N,N-dimethylmethanamine], the IC50 was in the range of 500 to 2500 nM.

`COc1ccc(-c2ccc3c(c2)CN(c2nc(CN(C)C)nc(C)c2C(C)C)CCO3)cc1NS(C)(=O)=O` [Compound 10] had an IC50 of 100 to 500 nM. The figure for `Cc1nc2cc(-c3ccc4c(c3)CN(c3nc(NCCN(C)C)nc(C)c3Cc3ccc(F)cc3)CCO4)ccc2[nH]1` [Compound 11, N′-{5-[(4-fluorophenyl)methyl]-4-methyl-6-[7-(2-methyl-1H-benzimidazol-5-yl)-2,3-dihydro-1,4-benzoxazepin-4(5H)-yl]pyrimidin-2-yl}-N,N-dimethylethane-1,2-diamine] is no more than 100 nM; for `CCNc1nc(C)c(Cc2ccc(F)cc2)c(N2CCOc3ccc(-c4ccc5[nH]c(C)nc5c4)cc3C2)n1` [Compound 12, N-ethyl-5-[(4-fluorophenyl)methyl]-4-methyl-6-[7-(2-methyl-1H-benzimidazol-5-yl)-2,3-dihydro-1,4-benzoxazepin-4(5H)-yl]pyrimidin-2-amine] it is no more than 100 nM; for `Cc1nc2cc(-c3ccc4c(c3)CN(c3nc(NCCCN(C)C)nc(C)c3Cc3ccc(F)cc3)CCO4)ccc2[nH]1` [Compound 13, N′-{5-[(4-fluorophenyl)methyl]-4-methyl-6-[7-(2-methyl-1H-benzimidazol-5-yl)-2,3-dihydro-1,4-benzoxazepin-4(5H)-yl]pyrimidin-2-yl}-N,N-dimethylpropane-1,3-diamine] it is no more than 100 nM. With `Cc1nc2cc(-c3ccc4c(c3)CN(c3nc(NC5CNC5)nc(C)c3Cc3ccc(F)cc3)CCO4)ccc2[nH]1` [Compound 14, N-azetidin-3-yl-5-[(4-fluorophenyl)methyl]-4-methyl-6-[7-(2-methyl-1H-benzimidazol-5-yl)-2,3-dihydro-1,4-benzoxazepin-4(5H)-yl]pyrimidin-2-amine] the figure was no more than 100 nM; with `Cc1nc2cc(-c3ccc4c(c3)CN(c3nc(NC5CNC5)nc(C)c3C(C)C)CCO4)ccc2[nH]1` [Compound 15, N-azetidin-3-yl-4-methyl-6-[7-(2-methyl-1H-benzimidazol-5-yl)-2,3-dihydro-1,4-benzoxazepin-4(5H)-yl]-5-(1-methylethyl)pyrimidin-2-amine], no more than 100 nM; with `COc1ccc(-c2ccc3c(c2)CN(c2nc(N)nc(C)c2C(C)C)CCO3)cc1NS(C)(=O)=O` [Compound 16, N-[5-{4-[2-amino-6-methyl-5-(1-methylethyl)pyrimidin-4-yl]-2,3,4,5-tetrahydro-1,4-benzoxazepin-7-yl}-2-(methyloxy)phenyl]methanesulfonamide], no more than 100 nM. In the case of `COC(=O)Nc1nc2cc(-c3ccc4c(c3)CN(c3nc(N)nc(C)c3C(C)C)CCO4)ccc2[nH]1` [Compound 17, methyl (5-{4-[2-amino-6-methyl-5-(1-methylethyl)pyrimidin-4-yl]-2,3,4,5-tetrahydro-1,4-benzoxazepin-7-yl}-1H-benzimidazol-2-yl)carbamate], the IC50 is no more than 100 nM. With `COc1ccc(-c2ccc3c(c2)CN(c2nc(CN(C)C)nc4c2CC(C)(C)CC4)CCO3)cc1C(C)=O` [Compound 18, 1-[5-(4-{2-[(dimethylamino)methyl]-6,6-dimethyl-5,6,7,8-tetrahydroquinazolin-4-yl}-2,3,4,5-tetrahydro-1,4-benzoxazepin-7-yl)-2-(methyloxy)phenyl]ethanone] the figure was 100 to 500 nM; with `Cc1nc2cc(-c3ccc4c(c3)CN(c3nc(CN5CCCC5)nc(C)c3C(C)C)CCO4)ccc2[nH]1` [Compound 20, 7-(2-methyl-1H-benzimidazol-5-yl)-4-[6-methyl-5-(1-methylethyl)-2-(pyrrolidin-1-ylmethyl)pyrimidin-4-yl]-2,3,4,5-tetrahydro-1,4-benzoxazepine], 100 to 500 nM; with `Cc1nc2cc(-c3ccc4c(c3)CN(c3nc(CN(C)C)nc(C)c3-c3ccccc3)CCO4)ccc2[nH]1` [Compound 21, N,N-dimethyl-1-{4-methyl-6-[7-(2-methyl-1H-benzimidazol-5-yl)-2,3-dihydro-1,4-benzoxazepin-4(5H)-yl]-5-phenylpyrimidin-2-yl}methanamine], 100 to 500 nM. With `Cc1nc2cc(-c3ccc4c(c3)CN(c3nc(CN(C)C)nc(C)c3CCCF)CCO4)ccc2[nH]1` [Compound 22, 1-{5-(3-fluoropropyl)-4-methyl-6-[7-(2-methyl-1H-benzimidazol-5-yl)-2,3-dihydro-1,4-benzoxazepin-4(5H)-yl]pyrimidin-2-yl}-N,N-dimethylmethanamine] the figure was 500 to 2500 nM; with `Cc1nc2cc(-c3ccc4c(c3)CN(c3nc(CN(C)C)nc(C)c3CC(C)C)CCO4)ccc2[nH]1` [Compound 23, N,N-dimethyl-1-{4-methyl-6-[7-(2-methyl-1H-benzimidazol-5-yl)-2,3-dihydro-1,4-benzoxazepin-4(5H)-yl]-5-(2-methylpropyl)pyrimidin-2-yl}methanamine], 100 to 500 nM.

Compound `Cc1nc2cc(-c3ccc4c(c3)CN(c3nc(C(C)N)nc5c3CC(C)(C)CC5)CCO4)ccc2[nH]1` (stereo not drawn) [Compound 24, 1-{6,6-dimethyl-4-[7-(2-methyl-1H-benzimidazol-5-yl)-2,3-dihydro-1,4-benzoxazepin-4(5H)-yl]-5,6,7,8-tetrahydroquinazolin-2-yl}ethanamine] showed an IC50 of no more than 100 nM.

Regarding `Cc1nc2cc(-c3ccc4c(c3)CN(c3nc(CF)nc5c3CC(C)(C)CC5)CCO4)ccc2[nH]1` [Compound 25, 4-[2-(fluoromethyl)-6,6-dimethyl-5,6,7,8-tetrahydroquinazolin-4-yl]-7-(2-methyl-1H-benzimidazol-5-yl)-2,3,4,5-tetrahydro-1,4-benzoxazepine], the IC50 was no more than 100 nM.
